The test system of data set [1] is Escherichia coli. The experiment in a line: Antimicrobial activity against Escherichia coli MC4100 assessed as uniform electron density of cytoplasm and formation of mesosome-like structure at 5 times MIC after 5 mins by transmission electron microscopy analysis. It counts as functional, organism-based.
Data set [2] relates to Escherichia coli. Kind of data set: Antimicrobial activity against Escherichia coli MC4100 assessed as blurred boundaries and highly altered cell walls at 5 times MIC after 5 mins by transmission electron microscopy analysis. The format is functional, organism-based.
In data set [3] the test system is Escherichia coli. The experiment in a line: Antimicrobial activity against Escherichia coli MC4100 assessed as damage of inner or outer membranes at 5 times MIC after 5 mins by transmission electron microscopy analysis. It counts as functional, organism-based.
Data set [4] relates to Listeria monocytogenes. Kind of data set: Antimicrobial activity against Listeria monocytogenes assessed as induction of K+ efflux assessed per mg of cell dry weight at MIC after 30 mins by spectrometry analysis. The format is functional.
Data set [5] deals with Listeria monocytogenes. Kind of data set: Antimicrobial activity against Listeria monocytogenes assessed as induction of K+ efflux assessed per mg of cell dry weight at 2 to 5 times MIC after 30 mins by spectrometry analysis. It counts as functional.
Data set [6] relates to Listeria monocytogenes. The experiment in a line: Antimicrobial activity against Listeria monocytogenes assessed as induction of Na+ efflux assessed per mg of cell dry weight at 5 times MIC after 30 mins by spectrometry analysis. It counts as functional.
In data set [7] the test system is Listeria ivanovii. The experiment in a line: Antimicrobial activity against Listeria ivanovii HPB20 assessed as appearance of swollen and severely damaged morphology at 5 times MIC after 5 mins by transmission electron microscopy analysis. It counts as functional.
The test system of data set [8] is Listeria ivanovii. Kind of data set: Antimicrobial activity against Listeria ivanovii HPB20 assessed as loss of integrity at 5 times MIC after 5 mins by transmission electron microscopy analysis. The format is functional.
For data set [9], the system named is Listeria ivanovii. The experiment in a line: Antimicrobial activity against Listeria ivanovii HPB28 after 24 hrs by polystyrene micro-assay. It counts as functional. As to conditions: HPB28, 24 h.
The test system of data set [10] is Listeria monocytogenes. The experiment in a line: Antimicrobial activity against Listeria monocytogenes LSD 532 after 24 hrs by polystyrene micro-assay. It counts as functional. As to conditions: LSD 532, 24 h.
Data set [11] has as its system Listeria monocytogenes. Kind of data set: Antimicrobial activity against Listeria monocytogenes LMA 1045 after 24 hrs by polystyrene micro-assay. The format is functional. As to conditions: LMA 1045, 24 h.
The test system of a further data set is Enterococcus faecalis. Kind of data set: Antimicrobial activity against Enterococcus faecalis ATCC 27275 after 24 hrs by polystyrene micro-assay. The format is functional. As to conditions: ATCC 27275, 24 h.
A further data set relates to Staphylococcus aureus. The experiment in a line: Antimicrobial activity against Staphylococcus aureus ATCC 6538 after 24 hrs by polystyrene micro-assay. The format is functional. As to conditions: ATCC 6538, 24 h.
For data set [12], the system named is Escherichia coli. The experiment in a line: Antimicrobial activity against Escherichia coli MC4100 after 24 hrs by polystyrene micro-assay. Conditions: MC4100, 24 h. It counts as functional.
Data set [13] relates to Escherichia coli. The experiment in a line: Antimicrobial activity against Escherichia coli ATCC 11229 after 24 hrs by polystyrene micro-assay. It counts as functional. As to conditions: ATCC 11229, 24 h.
For a further data set, the system named is Pseudomonas aeruginosa. Kind of data set: Antimicrobial activity against Pseudomonas aeruginosa ATCC 15442 after 24 hrs by polystyrene micro-assay. The format is functional. As to conditions: ATCC 15442, 24 h.
Data set [14] concerns Salmonella enterica subsp. enterica. Kind of data set: Antimicrobial activity against Salmonella enterica ATCC 14028 after 24 hrs by polystyrene micro-assay. It counts as functional. As to conditions: ATCC 14028, 24 h.
Data set [15] can be described thus: Hemolytic activity in erythrocytes (unknown origin) after 1 hr. The format is ADME, cell-based, Erythrocyte.
The subject of data set [16] is Listeria monocytogenes. Kind of data set: Antimicrobial activity against Listeria monocytogenes assessed as induction of Na+ efflux assessed per mg of cell dry weight at 2 ug/ml after 30 mins by spectrometry analysis. The format is functional.
Data set [17] concerns Listeria monocytogenes. Kind of data set: Antimicrobial activity against Listeria monocytogenes assessed as induction of K+ efflux assessed per mg of cell dry weight at 2 ug/ml after 30 mins by spectrometry analysis. The format is functional.
Data set [18] has as its system Listeria ivanovii. The experiment in a line: Antimicrobial activity against Listeria ivanovii HPB20 assessed as condensed and localized intracellular content at 5 times MIC after 5 mins by transmission electron microscopy analysis. The format is functional, cell-based.

≈ marks a conversion by molar mass, not a printed value. Calls of active or inactive are those of the source. No cut-off for these calls is given here.

For orientation: MIC means the lowest concentration that inhibits growth of the organism. A high value points to weaker potency. In general, HC50 refers to the concentration giving 50% haemolysis.

As for `CCC(=C(c1ccc(OCCCN(C)C)cc1)c1ccc(OCCCN(C)C)cc1)c1ccccc1.O=C(O)CC(O)(CC(=O)O)C(=O)O`, the outcome with Escherichia coli [1], with Escherichia coli [2], in the data set on Escherichia coli [3], in the data set on Listeria ivanovii [7] and with Listeria ivanovii [8] was Active. For the same compound, the Activity came to 183.74 nmol with Listeria monocytogenes [4], 344 nmol with Listeria monocytogenes [5] and 68% in the data set on Listeria monocytogenes [6]. Further, the MIC against Listeria ivanovii [9] came out at 25 µM; in the data set on Listeria monocytogenes [10], 31 µM; with Listeria monocytogenes [11], 62 µM; in the data set with Enterococcus faecalis it was 80 µM; in the data set with Staphylococcus aureus, 31 µM; with Escherichia coli [12], 50 µM. The MIC in the data set on Escherichia coli [13] is 50 µM; against Pseudomonas aeruginosa, greater than 5000 µM; in [14] it was 1250 µM. Further, in [15], the 50% haemolytic concentration (HC50) at 1 h is 67.1 µM.
`C=C(NC(=O)[C@@H](NC(=O)[C@H](Cc1cnc[nH]1)NC(=O)[C@@H](NC(=O)[C@H](CO)NC(=O)[C@@H]1CSC(C)[C@@H]2NC(=O)[C@H](C)NC(=O)[C@@H](NC(=O)N(CCCCN)C(=O)[C@H](CCCCN)NC(=O)[C@@H](CCSC)NC(=O)[C@H](CC(N)=O)NC(=O)[C@@H]3CSC(C)[C@H](NC(=O)[C@H](CCCCN)NC(=O)[C@@H]4CSC(C)[C@H](NC(=O)[C@@H]5CSC[C@H](NC(=O)/C(=C/C)NC(=O)[C@@H](N)[C@@H](C)CC)C(=O)N[C@@H](CC(C)C)C(=O)NC(=C)C(=O)N[C@@H](CC(C)C)C(=O)N5)C(=O)N5CCC[C@H]5C(=O)NCC(=O)N4)C(=O)NCC(=O)N[C@@H](C)C(=O)N[C@@H](CC(C)C)C(=O)N[C@H](CCSC)C(=O)NCC(=O)N3)C(C)SC[C@H](NC2=O)C(=O)N[C@@H](Cc2cnc[nH]2)C(=O)N1)[C@@H](C)CC)C(C)C)C(=O)N[C@@H](CCCCN)C(=O)O` (stereo not given in full): the Activity is 635.96 nmol in the data set with Listeria monocytogenes [16] and 361.79 nmol in the data set on Listeria monocytogenes [17].
For `CN(C)CCCOc1ccc(C(=C2CCc3ccccc32)c2ccc(OCCCN(C)C)cc2)cc1`, the result in the data set on Escherichia coli [2], in the data set on Escherichia coli [3], in the data set on Listeria ivanovii [7], in the data set with Listeria ivanovii [8] and in the data set with Listeria ivanovii [18] was Active. Moreover, the minimal inhibitory concentration (MIC) in the data set on Listeria ivanovii [9] was 25 µM (≈ 12.1 µg/mL); against Listeria monocytogenes [10] it was 31 µM (≈ 15 µg/mL); with Listeria monocytogenes [11], 62 µM (≈ 30.1 µg/mL); in the data set with Enterococcus faecalis it was 40 µM (≈ 19.4 µg/mL); with Staphylococcus aureus, 31 µM (≈ 15 µg/mL); with Escherichia coli [12] it was 100 µM (≈ 48.5 µg/mL). The values for the MIC (against Escherichia coli [13]; in the data set with Pseudomonas aeruginosa; in [14]) were 100 µM (≈ 48.5 µg/mL), 2500 µM (≈ 1210 µg/mL) and 2500 µM (≈ 1210 µg/mL), respectively. The compound also gave an HC50 at 1 h in [15] of 68.6 µM.
